# Biological target: T1, Human autotaxin enzyme (Homo sapiens, UniProt Q13822)
# T1 construct: purchased R&D System
# Experiment: Evaluation of autotaxin inhibitor, Method C (Test Example 3): 18:0 Lyso PC, choline assay, Resorufin fluorescence
# Assay type: biochemical
# Conditions: Assay Method C (Test Example 3), human autotaxin, 18:0 Lyso PC substrate; read-out: Inhibitory Activity (autotaxin enzyme inhibitory activity, IC50 class)
# Protocol: (Method C) Evaluation of Autotaxin Inhibitor
# Solution B containing 100 mM Tris-HCl buffer (pH7.5), 150 mM NaCl, 5 mM MgCl2 and 0.05% Triton X-100 was prepared. Human autotaxin enzyme (purchased from R&D System) was diluted with Solution B, and 2.5 μL of which was added to a solution of test compound in DMSO. Furthermore, 2.5 μl of 200 μM 18:0 Lyso PC (purchased from Avanti Polar Lipids) in Solution B was added and allowed to react at room temperature for 2 hours. After completion of the reaction, 15 μL of the coline assay reagent (100 mM Tris-HCl buffer (pH7.5), 5 mM MgCl2, 77 μg/mL choline oxidase, 10 μg/mL peroxidase, 25 μM 10-acetyl-3,7-dihydroxyphenoxazine and excess autotaxin inhibitor) was added and allowed to react at room temperature for 20 minutes. The fluorescent dye Resorufin, which was produced by the reaction, was detected. The fluorescence was detected using ViewLux (PerkinElmer, Inc.) with an excitation wavelength of 531 nm and a fluorescence wavelength of 598 nm.
# The percent inhibition of the test compound was calculated by assuming the sample with no test compound as 0% inhibition and the sample with no enzyme as 100% inhibition, and the percent inhibitions at different concentrations of the test compound were plotted to obtain a concentration-dependent curve.
row,IC50 [nM],Compound
1,10 to 100,CCCCCn1c(N2CCC[C@H]2C(=O)NCCCOC)cc(=O)n2cc(-c3ccc(Cl)cc3)nc12 [Compound 338]
2,100 to 1000,CCCCCn1c(N2CCCC(CNC(=O)OC(C)(C)C)C2)cc(=O)n2cc(-c3ccc(Cl)cc3)nc12 (stereo not shown) [Compound 311]
3,100 to 1000,CCCCCn1c(N2CCC[C@@H]2CC(=O)NCC(=O)O)cc(=O)n2cc(-c3ccc(Cl)cc3)nc12 [Compound 634]
4,100 to 1000,CCCCCn1c(N2CCN(C(=O)OC(C)(C)C)C(C(=O)NCCC(=O)O)C2)cc(=O)n2cc(-c3ccc(Cl)cc3)nc12 (stereo not shown) [Compound 614]
5,100 to 1000,CCCCCn1c(N2CCC(C(F)(F)F)C2)cc(=O)n2cc(-c3ccc(Cl)cc3)nc12 (stereo not shown) [Compound 323]
6,10 to 100,Cn1c(N2C[C@H](O)C[C@H]2C(=O)N[C@H](C(=O)O)C(C)(C)C)cc(=O)n2cc(-c3ccc(Cl)cc3)nc12 [Compound 774]
7,10 to 100,CCCCCn1c(C2=CCN(S(C)(=O)=O)CC2)cc(=O)n2cc(-c3ccc(Cl)cc3)nc12 [Compound 547]
8,< 10,CCCCCn1c(N2CCC[C@H]2C(=O)N2CCC[C@@H](C(=O)O)C2)cc(=O)n2cc(-c3ccc(Cl)cc3)nc12 [Compound 673]
9,10 to 100,CCCCCn1c(N2CCCC(CC(=O)O)C2)cc(=O)n2cc(-c3ccc(Cl)cc3)nc12 (stereo not shown) [Compound 319]
10,< 10,CCCCCn1c(N2CCC[C@H]2C(=O)NCCCC(=O)O)cc(=O)n2cc(-c3ccc(Cl)cc3)nc12 [Compound 354]
11,10 to 100,CCCCCn1c(-c2ccc(C(=O)NCCN3CCSCC3)cc2)cc(=O)n2cc(-c3ccc(Cl)cc3)nc12 [Compound 515]
12,< 10,CCCCCn1c(N2CCC[C@H]2C(=O)NCCCCCN2CCOCC2)cc(=O)n2cc(-c3ccc(Cl)cc3)nc12 [Compound 654]
13,100 to 1000,CCCCCn1c(C)cc(=O)n2cc(C3CCC(C(F)(F)F)CC3)nc12 (stereo not shown) [Compound 137]
14,100 to 1000,CCCCCn1c(N2CCC(C(=O)NC)CC2)cc(=O)n2cc(-c3ccc(Cl)cc3)nc12 [Compound 295]
15,10 to 100,CCCCCn1c(N(C)Cc2ccc(C(=O)O)cc2)cc(=O)n2cc(-c3ccc(Cl)cc3)nc12 [Compound 197]
16,100 to 1000,CCCCCn1c(-c2cccc(N3CCOCC3)c2)cc(=O)n2cc(-c3ccc(Cl)cc3)nc12 [Compound 445]
17,100 to 1000,CCCCCn1c(N2CCCC(F)(F)C2)cc(=O)n2cc(-c3ccc(Cl)cc3)nc12 [Compound 321]
18,< 10,CCCCCn1c(N2CCN(C(=O)OC(C)(C)C)C[C@H]2C(=O)NCCC(=O)O)cc(=O)n2cc(-c3ccc(Cl)cc3)nc12 [Compound 620]
19,100 to 1000,CCCCCn1c(N2CCCC(C)C2)cc(=O)n2cc(-c3ccc(Cl)cc3)nc12 (stereo not shown) [Compound 300]
20,10 to 100,CCCCCn1c(N2CC[C@H](C(=O)O)C2)cc(=O)n2cc(-c3ccc(Cl)cc3)nc12 [Compound 670]
21,100 to 1000,CCCCCn1c(-c2ccc(SC)cc2)cc(=O)n2cc(-c3ccc(Cl)cc3)nc12 [Compound 432]
22,< 10,CCCCCn1c(-c2cnc(C(=O)NCCC(=O)O)nc2)cc(=O)n2cc(-c3ccc(Cl)cc3)nc12 [Compound 536]
23,10 to 100,CCCCCn1c(-c2ccc(C(=O)N3C[C@@H]4COC(=O)[C@@H]4C3)cc2)cc(=O)n2cc(-c3ccc(Cl)cc3)nc12 [Compound 503]
24,10 to 100,CCCCCn1c(-c2ccc(C(=O)NCc3ncc[nH]3)cc2)cc(=O)n2cc(-c3ccc(Cl)cc3)nc12 [Compound 525]
25,10 to 100,CCCCCn1c(OC2CCN(C(=O)CN3CCOCC3)CC2)cc(=O)n2cc(-c3ccc(Cl)cc3)nc12 [Compound 539]
26,< 10,CCCCCn1c(N2CCC[C@H]2C(=O)NCCCCC(=O)O)cc(=O)n2cc(-c3ccc(Cl)cc3)nc12 [Compound 345]
27,100 to 1000,CCCCCn1c(N2CCCC(CN)C2)cc(=O)n2cc(-c3ccc(Cl)cc3)nc12 (stereo not shown) [Compound 328]
28,100 to 1000,CCCCCn1c(O[C@H]2C[C@@H](NC(=O)OC(C)(C)C)C2)cc(=O)n2cc(-c3ccc(Cl)cc3)nc12 [Compound 551]

# The remaining lines, values behind:
row,Compound,IC50 [nM]
1,CCCCCn1c(N2CCC[C@H]2CC(=O)NCC(=O)O)cc(=O)n2cc(-c3ccc(Cl)cc3)nc12 [Compound 628],< 10
2,CCCCCn1c(N2CCC[C@H]2C(=O)NCCOCCN2C(=O)C=CC2=O)cc(=O)n2cc(-c3ccc(Cl)cc3)nc12 [Compound 668],100 to 1000
3,CCCCCn1c(-c2ccc(C(=O)NCCc3cncn3C)cc2)cc(=O)n2cc(-c3ccc(Cl)cc3)nc12 [Compound 511],10 to 100
4,CCCCCn1c(-c2ccccc2F)cc(=O)n2cc(-c3ccc(Cl)cc3)nc12 [Compound 443],100 to 1000
5,CCCCCn1c(N2CCNC(=O)C2)cc(=O)n2cc(-c3ccc(Cl)cc3)nc12 [Compound 293],100 to 1000
6,O=C(O)[C@H](CCc1ccccc1)NC(=O)[C@@H]1C[C@@H](O)CN1c1cc(=O)n2cc(-c3ccc(Cl)cc3)nc2n1Cc1ccccc1 [Compound 751],< 10
7,CCCCCn1c(-c2ccc(C(=O)NCCN3CC4(COC4)C3)cc2)cc(=O)n2cc(-c3ccc(Cl)cc3)nc12 [Compound 365],10 to 100
8,CCCCCn1c(N2C[C@@H](O)C[C@H]2C(=O)NC(C)(C)CC(=O)OCC)cc(=O)n2cc(-c3ccc(Cl)cc3)nc12 [Compound 598],10 to 100
9,CCCCCn1c(N2C[C@@H](O)C[C@H]2C(=O)NCC(=O)O)cc(=O)n2cc(-c3ccc(Cl)cc3)nc12 [Compound 776],< 10
10,CCCCCn1c(-c2cccc(F)c2)cc(=O)n2cc(-c3ccc(Cl)cc3)nc12 [Compound 444],100 to 1000
11,CCCCCn1c(N2CCCC[C@@H]2C(=O)NCC(=O)O)cc(=O)n2cc(-c3ccc(Cl)cc3)nc12 [Compound 638],100 to 1000
12,CCCCCn1c(N2CCC[C@H]2C(=O)N[C@@H](CCC)C(=O)O)cc(=O)n2cc(-c3ccc(Cl)cc3)nc12 [Compound 731],< 10
13,CCCCCn1c(N2CCNC(C(=O)NCC(=O)O)C2)cc(=O)n2cc(-c3ccc(Cl)cc3)nc12 (stereo not shown) [Compound 665],10 to 100
14,CCCCCn1c(-c2ccc(C(=O)NCCn3ccnc3)cc2)cc(=O)n2cc(-c3ccc(Cl)cc3)nc12 [Compound 514],< 10
15,CCCCCn1c(N2CCC[C@H]2C(=O)N[C@H]2CNC(=O)C2)cc(=O)n2cc(-c3ccc(Cl)cc3)nc12 [Compound 712],100 to 1000
16,N#CCCCCn1c(NCc2ccc(C(=O)O)cc2)cc(=O)n2cc(-c3ccc(C(F)(F)F)cc3)nc12 [Compound 198],10 to 100
17,CCCCCn1c(-c2ccc(C(C)=O)cc2)cc(=O)n2cc(-c3ccc(Cl)cc3)nc12 [Compound 391],10 to 100
18,CCCCCn1c(OC)cc(=O)n2cc(-c3ccc(Cl)cc3)nc12 [Compound 558],100 to 1000
19,CCCCCn1c(O[C@H]2CCNC2)cc(=O)n2cc(-c3ccc(Cl)cc3)nc12 [Compound 572],10 to 100
20,CCCCCn1c(N2CCC[C@H]2C(=O)N2CCNC(=O)C2)cc(=O)n2cc(-c3ccc(Cl)cc3)nc12 [Compound 697],10 to 100
21,CCCCCn1c(N2CC3CNCC3C2)cc(=O)n2cc(-c3ccc(Cl)cc3)nc12 (stereo not shown) [Compound 331],100 to 1000
22,CCCCCn1c(-c2ccc(C(=O)N3CCC(O)CC3)cc2)cc(=O)n2cc(-c3ccc(Cl)cc3)nc12 [Compound 472],10 to 100
23,CCCCCn1c(-c2cc(NC(C)=O)cc(C(=O)O)c2)cc(=O)n2cc(-c3ccc(Cl)cc3)nc12 [Compound 427],10 to 100

# Same assay, conditions: Assay Method C, human autotaxin, 18:0 Lyso PC substrate; read-out: Inhibitory Activity
row,IC50 [nM],Compound
1,> 1000,CCCCCn1c(N2CCCCC2CC)cc(=O)n2cc(-c3ccc(Cl)cc3)nc12 (stereo not shown) [Compound 802]
2,100 to 1000,N#CCNC(=O)Cc1cn(CCCC(F)(F)F)c2nc(-c3ccc(Cl)cc3)cn2c1=O [Compound 829]
3,100 to 1000,N#CCN(CC#N)C(=O)Cc1cn(CCCC(F)(F)F)c2nc(-c3ccc(Cl)cc3)cn2c1=O [Compound 839]
4,> 1000,O=C(Cc1cn(CCCC(F)(F)F)c2nc(-c3ccc(Cl)cc3)cn2c1=O)N[C@H]1CCN(C2COC2)C1 [Compound 852]
5,100 to 1000,CCCCCn1c(N2CCC[C@H]2C(=O)NC[C@H](O)C(F)(F)F)cc(=O)n2cc(-c3ccc(Cl)cc3)nc12 [Compound 792]
6,10 to 100,CCCCCn1cc(Cc2cccc(C(=O)O)c2)c(=O)n2cc(-c3ccc(Cl)cc3)nc12 [Compound 820]
7,> 1000,N#CCCCNC(=O)Cc1cn(CCCC(F)(F)F)c2nc(-c3ccc(Cl)cc3)cn2c1=O [Compound 832]
8,> 1000,CCCCCn1c(N2CCC[C@@H](C)C2)cc(=O)n2cc(-c3ccc(Cl)cc3)nc12 [Compound 811]

# The next lines start with the compound.
row,Compound,IC50 [nM]
1,CCCCCn1c(N2CCC[C@H]2C(=O)Nc2ccccc2-c2nn[nH]n2)cc(=O)n2cc(-c3ccc(Cl)cc3)nc12 [Compound 791],100 to 1000
2,C[C@H](NC(=O)[C@@H]1C[C@@H](O)CN1c1cc(=O)n2cc(-c3ccc(Cl)cc3)nc2n1C)C(=O)O [Compound 782],100 to 1000
3,CCC(CO)(CO)NC(=O)Cc1cn(CCCC(F)(F)F)c2nc(-c3ccc(Cl)cc3)cn2c1=O [Compound 861],10 to 100
4,CCCCCn1c(N2CCC[C@H]2C(=O)Nc2ccc(Oc3nn[nH]n3)cc2)cc(=O)n2cc(-c3ccc(Cl)cc3)nc12 [Compound 796],100 to 1000

# Same assay, conditions: Assay Method: Method C (Test Example 3); read-out: Inhibitory Activity (Enzyme Inhibitory Activity, IC50)
row,IC50 [nM],Compound
1,100 to 1000,Cc1cc(=O)n2cc(-c3ccc(Cl)cc3)nc2n1CCCC(C)F (stereo not shown) [Compound 49]
